Where “and” joins values, the source holds several entries; their conditions need not be identical. Identical values can stand only once.
Experiments:
[1] = Order of compounding of the test composition (Example 11, Table 26); format: physicochemical; conditions: organic solvents
Protocol: The first step in the sequence of compounding was to add pre-weighed solid sodium valproate to the stock P407 aqueous solution over ice. The temperature of P407 solution is important to keep the viscosity of this thermoreversible polymer in a liquid free-flowing state. After a clear solution was obtained, the CHIR99021-DMSO stock solution was added slowly to the NaVPA-P407-water solution. […] CHIR99021 also begins to degrade after extended periods of time in solution.

[2] = Perilymph Conc. listed for agents (Tables 14-25)
[3] = Stability of the filtered solution prior to lyophilization by HPLC (Example 2); format: physicochemical; conditions: room temperature
Protocol: Stability Analysis: Prior to lyophilization, the stability of the filtered solution was analyzed by HPLC. The solution was held at room temperature for 4 hours, and samples of the solution was analyzed by HPLC during the period of time. […] Further, about 100% of sodium valproate remained in the solution.

[4] = Storage stability of the lyophilized test composition (Table 27); format: physicochemical
Protocol: The lyophilized composition was stored in a glass container with rubber closure and crimp seal under refrigeration for 6 months and at −20° C. for 24 months.

[5] = Stability of the reconstituted test composition in refrigerated syringes (Example 13); format: physicochemical; conditions: for time assay levels remained stable with initial levels: reconstituted test composition in polypropylene syringes, refrigerated
[6] = Stability of the non-lyophilized test composition under refrigeration (Example 13); format: physicochemical; conditions: freshly compounded test composition, refrigerator, 0 to 120 hours
[7] = Stability of reconstituted higher concentration formulation at 2-8° C. for 8 hours (Table D); format: physicochemical; conditions: Post Lyo
LSD1 = LSD1 (Homo sapiens, UniProt O60341); conditions: Table 18; read-out: Literat. Cell EC50; cited from earlier work
KDM1b = target: T1, KDM1b (Homo sapiens, UniProt Q8NB78); conditions: Table 18; read-out: Select KDM1b; cited from earlier work
T1 sequence (Q8NB78 1-822): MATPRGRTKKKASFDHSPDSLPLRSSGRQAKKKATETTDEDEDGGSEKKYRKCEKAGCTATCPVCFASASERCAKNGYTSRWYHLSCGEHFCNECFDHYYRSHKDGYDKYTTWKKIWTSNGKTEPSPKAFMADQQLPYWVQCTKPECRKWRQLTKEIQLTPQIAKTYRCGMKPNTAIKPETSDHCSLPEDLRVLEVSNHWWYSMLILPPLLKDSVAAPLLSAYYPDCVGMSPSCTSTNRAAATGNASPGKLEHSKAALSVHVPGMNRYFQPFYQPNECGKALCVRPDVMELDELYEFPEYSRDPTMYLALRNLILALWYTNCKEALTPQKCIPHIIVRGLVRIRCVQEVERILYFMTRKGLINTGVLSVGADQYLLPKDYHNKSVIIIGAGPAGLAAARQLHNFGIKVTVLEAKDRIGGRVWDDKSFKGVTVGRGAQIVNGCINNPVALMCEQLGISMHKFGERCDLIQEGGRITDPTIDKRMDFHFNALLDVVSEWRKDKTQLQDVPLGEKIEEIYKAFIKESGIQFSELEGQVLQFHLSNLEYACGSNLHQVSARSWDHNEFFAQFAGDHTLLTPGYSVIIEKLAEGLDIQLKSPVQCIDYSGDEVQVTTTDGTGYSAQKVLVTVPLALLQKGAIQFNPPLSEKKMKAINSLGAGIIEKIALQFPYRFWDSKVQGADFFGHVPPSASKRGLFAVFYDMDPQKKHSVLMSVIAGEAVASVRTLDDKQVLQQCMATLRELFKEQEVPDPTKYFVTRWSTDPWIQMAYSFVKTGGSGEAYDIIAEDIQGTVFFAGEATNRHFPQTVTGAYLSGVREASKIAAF

Lgr5+ cells = assay: Lgr5+ Assay (Lgr5+ cell assay in vitro); format: cell-based
[8] = Table 18; cited from earlier work
GSK-3 beta = GSK-3 beta (Homo sapiens, UniProt P49841); conditions: cited from earlier work
Chain of GSK-3 beta (P49841 whole entry): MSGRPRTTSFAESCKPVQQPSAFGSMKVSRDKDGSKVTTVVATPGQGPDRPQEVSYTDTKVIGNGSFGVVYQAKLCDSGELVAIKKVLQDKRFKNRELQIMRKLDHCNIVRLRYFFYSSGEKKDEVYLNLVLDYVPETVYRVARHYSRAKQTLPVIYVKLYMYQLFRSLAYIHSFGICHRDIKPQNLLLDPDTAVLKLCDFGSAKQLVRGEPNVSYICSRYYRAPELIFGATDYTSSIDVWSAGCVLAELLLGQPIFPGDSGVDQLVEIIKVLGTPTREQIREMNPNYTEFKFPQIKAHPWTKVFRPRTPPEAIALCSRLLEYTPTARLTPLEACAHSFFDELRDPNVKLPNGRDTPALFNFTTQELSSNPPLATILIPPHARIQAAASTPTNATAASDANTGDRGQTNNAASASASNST

GSK-3 alpha = GSK-3 alpha (Homo sapiens, UniProt P49840); conditions: cited from earlier work
Chain of GSK-3 alpha (P49840 whole entry): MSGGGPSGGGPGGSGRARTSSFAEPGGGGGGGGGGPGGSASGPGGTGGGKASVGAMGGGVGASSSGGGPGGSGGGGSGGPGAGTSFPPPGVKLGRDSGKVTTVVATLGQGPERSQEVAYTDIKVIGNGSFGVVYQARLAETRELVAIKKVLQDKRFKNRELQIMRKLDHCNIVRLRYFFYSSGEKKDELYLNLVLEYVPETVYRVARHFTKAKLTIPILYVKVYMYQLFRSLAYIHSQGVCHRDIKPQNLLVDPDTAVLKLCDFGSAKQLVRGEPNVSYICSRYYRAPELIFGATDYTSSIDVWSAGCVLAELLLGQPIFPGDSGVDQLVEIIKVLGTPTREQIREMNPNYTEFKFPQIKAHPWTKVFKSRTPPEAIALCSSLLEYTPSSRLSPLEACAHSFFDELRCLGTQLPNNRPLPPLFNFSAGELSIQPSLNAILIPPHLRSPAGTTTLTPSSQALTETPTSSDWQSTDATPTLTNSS

HER4 = HER4 (Homo sapiens, UniProt Q15303); conditions: cited from earlier work
Chain of HER4 (Q15303 26-1308, species assumed): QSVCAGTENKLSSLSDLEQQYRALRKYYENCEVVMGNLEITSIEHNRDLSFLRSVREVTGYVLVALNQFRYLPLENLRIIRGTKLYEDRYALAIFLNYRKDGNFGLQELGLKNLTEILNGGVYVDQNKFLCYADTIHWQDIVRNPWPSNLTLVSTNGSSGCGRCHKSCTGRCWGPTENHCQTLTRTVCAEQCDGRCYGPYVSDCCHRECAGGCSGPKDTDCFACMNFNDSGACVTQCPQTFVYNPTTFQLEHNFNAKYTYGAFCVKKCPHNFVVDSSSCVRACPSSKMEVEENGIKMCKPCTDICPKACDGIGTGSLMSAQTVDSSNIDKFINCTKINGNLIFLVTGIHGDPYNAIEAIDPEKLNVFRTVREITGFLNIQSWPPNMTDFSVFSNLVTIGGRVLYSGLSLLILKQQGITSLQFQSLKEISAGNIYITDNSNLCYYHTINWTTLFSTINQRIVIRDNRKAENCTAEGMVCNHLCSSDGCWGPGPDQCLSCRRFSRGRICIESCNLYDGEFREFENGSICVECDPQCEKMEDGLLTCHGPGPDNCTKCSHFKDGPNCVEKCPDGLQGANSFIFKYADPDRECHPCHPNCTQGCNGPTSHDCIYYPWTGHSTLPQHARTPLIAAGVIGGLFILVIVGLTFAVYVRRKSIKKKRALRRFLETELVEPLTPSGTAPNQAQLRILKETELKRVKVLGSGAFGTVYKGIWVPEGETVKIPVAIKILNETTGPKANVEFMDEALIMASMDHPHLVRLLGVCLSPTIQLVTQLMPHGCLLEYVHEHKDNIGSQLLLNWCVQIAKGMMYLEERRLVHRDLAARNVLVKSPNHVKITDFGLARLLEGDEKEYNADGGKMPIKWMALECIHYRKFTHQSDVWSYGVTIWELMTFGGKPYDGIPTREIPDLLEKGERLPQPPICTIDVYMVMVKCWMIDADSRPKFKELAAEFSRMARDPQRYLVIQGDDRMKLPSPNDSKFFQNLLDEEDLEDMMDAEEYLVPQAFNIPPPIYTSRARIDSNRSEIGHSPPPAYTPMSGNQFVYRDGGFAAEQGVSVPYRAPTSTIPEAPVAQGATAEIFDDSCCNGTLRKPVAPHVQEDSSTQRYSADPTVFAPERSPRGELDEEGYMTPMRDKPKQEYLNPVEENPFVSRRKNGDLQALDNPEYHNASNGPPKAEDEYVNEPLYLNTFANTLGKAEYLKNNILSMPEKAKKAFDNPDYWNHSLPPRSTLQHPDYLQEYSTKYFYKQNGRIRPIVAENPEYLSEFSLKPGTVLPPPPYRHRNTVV

[9] = format: physicochemical; conditions: lyophilized composition (Dosage 1) stored at 5° C., room temperature or 40° C. under 75% relative humidity in the dark
Protocol: Stability Analysis: The stability of the lyophilized composition formulation (Dosage 1) was analyzed upon storage at 5° C., room temperature, or 40° C. under 75% relative humidity in the dark Samples were taken at various time points, reconstituted as described in Example 4 and samples analyzed by HPLC. […] About 100% of sodium valproate remained.
Long-term stability of the lyophilized composition formulation (Dosage 1) was tested. The composition was held at room temperature (ambient) in the dark for two months and reconstituted as described in Example 4 below.

HDAC = conditions: Mechanism HDAC Inhib 1, 2, 3, 8; cited from earlier work
[10] = Reconstitution time of lyophilized compositions (Tables E, 28, 35); format: physicochemical
Protocol: Diluent 1, 0.85 mL+lyophilized cake. […] Gentle tapping on the exterior of the vessel to help the cake dissolve in the Diluent may be required while keeping it in fridge (or ice bath). To avoid degradation of the composition, minimize stirring and/or vortexing.
Diluent 1, 0.95 mL+Placebo cake: Using a syringe, add the Diluent to the Placebo cake, and rest in a fridge or ice bath (2-8° C.) for 60 minutes or until clear solution is formed. Gentle tapping on the exterior of the vessel to help the cake dissolve in the Diluent may be required while keeping it in fridge (or ice bath). To avoid degradation of the composition, minimize stirring and/or vortexing.
Powder P407 (i.e. non-lyophilized) can be obtained from BASF.
Reconstitution of lyophilized P407 (Placebo) and powder P407 was done using 850 μL Diluent (see above for example preparations of a Diluent) in a vial.
Therefore, to probe the effect of salts other than sodium valproate on reconstitution time, a poloxamer solution at 16.15% concentration either alone or including a salt (e.g. an inorganic salt or organic acid salt) at a concentration of 533.25 mM, was lyophilized. The lyophilized material was then reconstituted using Diluent for reconstitution (6.4% DMSO by wt. % in water) or with water.
Building on the results of Examples 14 to 16, further lyophilized compositions were manufactured and had their reconstitution times evaluated. […] The further lyophilized compositions were made in accordance with Example 10, and reconstituted in accordance with Example 12.

MAOs A and B = conditions: Table 18, one value, isoform not told; read-out: Select MAOs A and B; cited from earlier work
ErbB3/HER3 = ErbB3/HER3 (Homo sapiens, UniProt P21860); conditions: read-out: HER 3 pKi or IC50 (converted); cited from earlier work
Chain of ErbB3/HER3 (P21860 20-1342): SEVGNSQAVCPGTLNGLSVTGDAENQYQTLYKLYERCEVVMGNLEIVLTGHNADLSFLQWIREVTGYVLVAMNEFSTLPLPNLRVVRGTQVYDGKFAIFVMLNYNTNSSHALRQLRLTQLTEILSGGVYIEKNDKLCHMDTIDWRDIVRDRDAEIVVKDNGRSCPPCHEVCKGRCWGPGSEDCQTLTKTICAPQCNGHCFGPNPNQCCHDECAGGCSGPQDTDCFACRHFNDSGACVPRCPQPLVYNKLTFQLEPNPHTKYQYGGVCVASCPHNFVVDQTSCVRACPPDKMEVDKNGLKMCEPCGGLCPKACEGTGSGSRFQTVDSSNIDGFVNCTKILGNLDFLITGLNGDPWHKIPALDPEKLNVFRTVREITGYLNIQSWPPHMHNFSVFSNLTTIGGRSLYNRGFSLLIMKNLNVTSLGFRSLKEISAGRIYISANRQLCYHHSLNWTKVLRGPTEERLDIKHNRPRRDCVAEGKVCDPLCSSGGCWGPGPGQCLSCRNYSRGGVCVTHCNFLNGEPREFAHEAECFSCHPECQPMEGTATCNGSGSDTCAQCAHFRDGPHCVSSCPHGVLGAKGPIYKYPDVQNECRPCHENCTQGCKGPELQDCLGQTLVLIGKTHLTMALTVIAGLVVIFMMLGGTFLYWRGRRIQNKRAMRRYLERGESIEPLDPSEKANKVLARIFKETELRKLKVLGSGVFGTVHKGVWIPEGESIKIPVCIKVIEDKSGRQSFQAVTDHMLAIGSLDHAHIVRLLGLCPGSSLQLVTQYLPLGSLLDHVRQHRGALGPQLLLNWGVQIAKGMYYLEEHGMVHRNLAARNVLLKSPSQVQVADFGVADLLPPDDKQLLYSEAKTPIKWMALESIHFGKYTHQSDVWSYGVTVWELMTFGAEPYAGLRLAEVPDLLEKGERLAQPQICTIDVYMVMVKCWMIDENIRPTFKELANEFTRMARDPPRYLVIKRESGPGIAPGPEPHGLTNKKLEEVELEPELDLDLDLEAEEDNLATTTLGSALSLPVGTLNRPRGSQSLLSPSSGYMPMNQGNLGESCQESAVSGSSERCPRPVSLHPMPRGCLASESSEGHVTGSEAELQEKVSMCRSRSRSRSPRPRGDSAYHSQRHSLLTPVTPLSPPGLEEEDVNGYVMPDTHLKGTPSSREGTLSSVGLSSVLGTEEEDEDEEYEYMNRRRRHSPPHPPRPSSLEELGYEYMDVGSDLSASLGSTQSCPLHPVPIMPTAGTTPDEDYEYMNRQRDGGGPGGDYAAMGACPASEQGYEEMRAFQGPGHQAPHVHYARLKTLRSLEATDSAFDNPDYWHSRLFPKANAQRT

[11] = Table 14, listed concentration, no test described
[12] = lyophilized composition GMP lot B17030018, Refrigerated, 1 month
[13] = lyophilized composition GMP lot B17030018, Refrigerated, 2 months
[14] = lyophilized composition GMP lot B17030018, Refrigerated, 3 months
[15] = lyophilized composition GMP lot B17030018, Refrigerated, 6 months
[16] = lyophilized composition GMP lot B17030018, Release, 0 month
[17] = lyophilized composition GMP lot B17030018, −20, 1 month
[18] = lyophilized composition GMP lot B17030018, −20, 2 months
[19] = lyophilized composition GMP lot B17030018, −20, 3 months
[20] = lyophilized composition GMP lot B17030018, −20, 6 months
[21] = lyophilized composition GMP lot B17030018, −20, 9 months
[22] = lyophilized composition GMP lot B17030018, −20, 12 months
[23] = lyophilized composition GMP lot B17030018, −20, 18 months
[24] = lyophilized composition GMP lot B17030018, −20, 24 months

With `Cc1cnc(-c2cnc(NCCNc3ccc(C#N)cn3)nc2-c2ccc(Cl)cc2Cl)[nH]1` [CHIR99021] the “solubility of CHIR99021” value [1] was “very limited in almost all organic solvents except polar solvents, such as DMSO”, the “Perilymph Conc” value [2, 11] was 2 to 6 µM and the “total impurities formed for CHIR99021” value ([3]; over 4 hours) was “about 4.6%”. For the same molecule, the “Assay (drug content)” value [4, 12] was 105%, the “Assay (drug content)” value [4, 13] was 105% and the “Assay (drug content)” value [4, 14] was 104%. The “Assay (drug content)” value [4, 15] was 102%, the “Assay (drug content)” value [4, 16] was 103% and the “Assay (drug content)” value [4, 17] was 107%. For the same molecule, the “Assay (drug content)” value [4, 18] was 107%, the “Assay (drug content)” value [4, 19] was 104% and the “Assay (drug content)” value [4, 20] was 103%. For the same molecule, the “Assay (drug content)” value [4, 21] was 102%, the “Assay (drug content)” value [4, 22] was 99% and the “Assay (drug content)” value [4, 23] was 100%. The “Assay (drug content)” value [4, 24] was 100%, the “time assay levels remained stable with initial levels” value [5] was 6 h and the “decrease of assay level from its initial level” value ([5]; reconstituted test composition in refrigerated syringes, sometime between 8 and 24 hours) was 37%. The “assay level over time” value [6] was “decreased from its initial level over time”, the “% Rel Error” value [7] was 2.2% and 2.4% and the “Conc.” value [7] was 3470 µg/mL and 3480 µg/mL. The “% Rel Error” value ([7]; 24 Hrs, refrigerator 2-8° C.) was −1.3% and 0.6% and the “Conc.” value ([7]; 24 Hrs, refrigerator 2-8° C.) was 3360 µg/mL and 3420 µg/mL.

In the case of `O=C(O)c1ccc(CN2CCC(CN[C@@H]3C[C@H]3c3ccccc3)CC2)cc1` [GSK-2879552], the EC50 (LSD1) is listed as 2 to 240 nM, the “Perilymph Conc” value ([2]; Table 18, lower end of range) is listed as at least 40 nM- and the “Perilymph Conc” value ([2]; Table 18, upper end of range) is listed as at most 30 µM. The IC50 (KDM1b) was 20000 nM, the “Lgr5+ Assay” value (Lgr5+ cells; Table 18, lower end of concentration range) was at least 40 nM- and the “Human Plasma Conc” value [8] was 1 to 100 nM.

In the case of `O=C1NC(=O)C(c2cnc3ccccn23)=C1c1cn2c3c(cc(F)cc13)CN(C(=O)N1CCCCC1)CC2` [LY2090314, 3-(9-fluoro-2-(piperidine-1-carbonyl)-1,2,3,4-tetrahydro-[1,4]diazepino[6,7,1-hi]indol-7-yl)-4-(imidazo[1,2-a]pyridin-3-yl)-1H-pyrrole-2,5-dione], the GSK-3 beta (GSK-3 beta) is given as 0.9 nM, the GSK-3 alpha (GSK-3 alpha) is given as 2.1 nM and the “Perilymph Conc” value [2, 11] is given as 0.005 to 0.02 µM. The “Lgr5+ Assay” value (Lgr5+ cells; Table 14) was 5 to 20 nM.

In the case of `CNC(=O)CN1CCC(Oc2cc3c(Nc4cccc(Cl)c4F)ncnc3cc2OC)CC1` [Sapitinib/AZD8931/], the IC50 (HER4) is given as 3 nM.

In the case of `CCCC(CCC)C(=O)O` [Sodium Valproate, Sodium 2-propylpentanoate], the sodium valproate remained [9] is given as “About 100%”, the “HDAC Potenc” value (HDAC) is given as 39 to 161 µM and the “Perilymph Conc” value ([2]; HDAC inhibitor table, upper end of the wrapped range 100 uM-4 mM, no test described) is given as at most 4000 µM. For the same molecule, the “Reconstitution time (minutes) water + DMSO” value ([10]; lyophilized 16.15% P407 with salt at 533.25 mM, reconstituted with Diluent ([…] DMSO in water)) was 25 min, the “Reconstitution time (minutes) with water” value ([10]; lyophilized 16.15% P407 with salt at 533.25 mM, reconstituted with water) was 20 min and the “reconstitution time of lyophilized poloxamer with added organic acid salt” value ([10]; poloxamer 16.15%, salt 533.25 mM) was 420 min. The “sodium valproate remained in the solution” value ([3]; 4 hours) was “about 100%”, the “Assay (drug content)” value [4, 12] was 100% and the “Assay (drug content)” value [4, 13] was 100%. The “Assay (drug content)” value [4, 14] was 100%, the “Assay (drug content)” value [4, 15] was 99% and the “Assay (drug content)” value [4, 16] was 100%. For the same molecule, the “Assay (drug content)” value [4, 17] was 101%, the “Assay (drug content)” value [4, 18] was 100% and the “Assay (drug content)” value [4, 19] was 100%. The “Assay (drug content)” value [4, 20] was 100%, the “Assay (drug content)” value [4, 21] was 99% and the “Assay (drug content)” value [4, 22] was 99%. The “Assay (drug content)” value [4, 23] was 101%, the “Assay (drug content)” value [4, 24] was 98% and the “Lgr5+ Assay” value (Lgr5+ cells; HDAC inhibitor table, upper end of the wrapped range 100 uM-4 mM) was at most 4e+06 nM. For the same molecule, the “time assay levels remained stable with initial levels” value [5] was 6 h, the assay level ([5]; reconstituted test composition in refrigerated syringes, up to 24 hours) was “remained constant over this time” and the “assay level over time” value [6] was “remained constant over this time”. The “% Rel Error” value [7] was 7.3% and 5.5%, the “Conc.” value [7] was 102900 µg/mL and 101100 µg/mL and the “% Rel Error” value ([7]; 24 Hrs, refrigerator 2-8° C.) was 5.3% and 7.5%. For the same molecule, the “Conc.” value ([7]; 24 Hrs, refrigerator 2-8° C.) was 101000 µg/mL and 103100 µg/mL.

In the case of `N[C@@H]1C[C@H]1c1ccccc1` [TCP], the IC50 (MAOs A and B) is given as 1000 nM, the “Perilymph Conc” value ([2]; Table 18, range or its upper end) is given as 0.1 to 20 µM and the “Lgr5+ Assay” value (Lgr5+ cells; Table 18, concentration range or its upper end) is given as 100 to 20000 nM. The “Human Plasma Conc Cmax” value [8] was 0.03 to 0.2 µg/mL.

For `CN1CCN(Cc2ccc(NC(=O)Cc3ccc(Oc4cc(NC(=O)C5CC5)ncn4)cc3)cc2C(F)(F)F)CC1` [WS6], the IC50 (ErbB3/HER3) is given as 280 nM.
